Measured values taken from patent US11078168B2, “Substituted N-hydroxyamidinoheterocycles as modulators of indoleamine 2,3-dioxygenase” (PHENEX DISCOVERY VERWALTUNGS-GMBH, priority 2016, dated 2021).

Biological target: T1, Indoleamine 2,3-dioxygenase (Homo sapiens, UniProt P14902)
T1 construct: endogenous in cells; host or cells: SKOV-3 (ATCC HTB-77), stimulated with interferon gamma
Assay: SKOV-3 cellular Indoleamine 2,3-dioxygenase assay
Conditions: SKOV-3 cells, 50 ng/ml Interferon gamma, 100 μM L-Tryptophan, 24 hours, N-Formylkynurenin fluorescence detection; read-out: cell based activity
How it was run: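 SKOV-3 cells stimulated with 50 ng/ml interferon gamma, exposed to compound dilutions with L-tryptophan at 100 µM final for 24 h at 37 °C. N-formylkynurenine detected by 200 mM 3-methylpiperidine, 65 °C for 20 min, fluorescence ex 405/em 535 nm.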

T1 sequence (P14902 whole entry): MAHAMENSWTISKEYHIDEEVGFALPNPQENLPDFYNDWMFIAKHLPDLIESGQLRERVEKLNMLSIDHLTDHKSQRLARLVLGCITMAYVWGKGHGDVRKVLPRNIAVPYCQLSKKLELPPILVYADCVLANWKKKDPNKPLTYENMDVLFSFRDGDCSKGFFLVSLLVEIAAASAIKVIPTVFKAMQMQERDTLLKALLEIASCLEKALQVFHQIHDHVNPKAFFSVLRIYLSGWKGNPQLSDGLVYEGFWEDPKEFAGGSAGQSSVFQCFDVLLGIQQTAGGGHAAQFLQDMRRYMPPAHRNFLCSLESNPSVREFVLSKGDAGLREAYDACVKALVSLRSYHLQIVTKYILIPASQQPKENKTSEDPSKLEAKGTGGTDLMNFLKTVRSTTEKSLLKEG

Row | SMILES | IC50 [nM]
1 | CS(=N)(=O)NCCOc1nonc1C(=NO)Nc1ccc(F)c(Cl)c1 (stereo not drawn) [Example 21, N-(3-Chloro-4-fluorophenyl)-N-hydroxy-4-(2-(methylsulfonoamidimidamido)ethoxy)-1,2,5-oxadiazole-3-carboximidamide] | 100 to 1000
2 | O=C(NCCOc1nonc1C(=NO)Nc1ccc(F)c(Cl)c1)C1COCCN1 (stereo not drawn) [Example 3, N-(2-((4-(N-(3-Chloro-4-fluorophenyl)-N′-hydroxycarbamimidoyl)-1,2,5-oxadiazol-3-yl)oxy)ethyl)morpholine-3-carboxamide] | 100 to 1000
3 | O=C(O)C1CN(CCSc2nonc2C(=NO)Nc2ccc(F)c(C(F)F)c2)C1 [108/1] | > 1000
4 | O=C(NCCSc1nonc1C(=NO)Nc1ccc(F)c(Cl)c1)C1(O)CNC1 [Example 123, N-(2-((4-(N-(3-Chloro-4-fluorophenyl)-N′-hydroxycarbamimidoyl)-1,2,5-oxadiazol-3-yl)thio)ethyl)-3-hydroxyazetidine-3-carboxamide] | 100 to 1000
5 | CC(C)(C)OC(=O)NC1(C(=O)NCCOc2nonc2C(=NO)Nc2ccc(F)c(Cl)c2)CC1(F)F (stereo not drawn) [9/18] | > 1000
6 | ON=C(Nc1ccc(F)c(Cl)c1)c1nonc1OCCN1CCOCC1 [Example 10, N-(3-Chloro-4-fluorophenyl)-N′-hydroxy-4-(2-morpholinoethoxy)-1,2,5-oxadiazole-3-carboximidamide] | 100 to 1000
7 | O=C(NCCSc1nonc1C(=NO)Nc1ccc(F)c(C(F)F)c1)c1ccc(C(O)(C(F)(F)F)C(F)(F)F)cc1 [107/20] | 100 to 1000
8 | CC(C)(C)OC(=O)NC1(C(=O)NCCOc2nonc2C(=NO)Nc2ccc(F)c(Cl)c2)COC1 [9/16] | 100 to 1000
9 | CS(=N)(=O)NCCSc1nonc1C(=NO)Nc1ccc(F)c(Cl)c1 (stereo not drawn) [Example 120] | < 100
10 | O=S(=O)(Cc1ccccc1)c1nonc1C(=NO)Nc1ccc(F)c(Cl)c1 [Example 104, 4-(Benzylsulfonyl)-N-(3-chloro-4-fluorophenyl)-N′-hydroxy-1,2,5-oxadiazole-3-carboximidamide] | > 1000
11 | NS(=O)(=O)N1CC(O)(C(=O)NCCSc2nonc2C(=NO)Nc2ccc(F)c(C(F)F)c2)C1 [128/6] | < 100
12 | NS(=O)(=O)c1ccc(C(=O)NCCSc2nonc2C(=NO)Nc2ccc(F)c(C(F)F)c2)cc1 [117/14] | < 100
13 | NC(=O)CC(=O)NCCSc1nonc1C(=NO)Nc1ccc(F)c(C(F)F)c1 [Example 119] | < 100
14 | NS(=O)(=O)NCC[S+]([O-])c1nonc1C(=NO)Nc1ccc(F)c(Cl)c1 (stereo not drawn) [109/1] | > 1000
15 | O=C(NCCSc1nonc1/C(=N/O)Nc1ccc(F)c(C(F)F)c1)C1CS(=O)(=O)C1 [107/8] | < 100
16 | Cc1nnc(NCCSc2nonc2C(=NO)Nc2ccc(F)c(C(F)F)c2)o1 [Example 111, N-(3-(Difluoromethyl)-4-fluorophenyl)-N′-hydroxy-4-((2-((5-methyl-1,3,4-oxadiazol-2-yl)amino)ethyl)thio)-1,2,5-oxadiazole-3-carboximidamide] | < 100
17 | O=C(NCCSc1nonc1C(=NO)Nc1ccc(F)c(Cl)c1)c1ccc(C(=O)O)nc1 [117/5] | > 1000
18 | Cc1nnc(NCCOc2nonc2C(=NO)Nc2ccc(F)c(Cl)c2)o1 [Example 14, N-(3-Chloro-4-fluorophenyl)-N′-hydroxy-4-(2-((5-methyl-1,3,4-oxadiazol-2-yl)amino)ethoxy)-1,2,5-oxadiazole-3-carboximidamide] | 100 to 1000
19 | N#Cc1cccc(NC(=NO)c2nonc2SCCNC(=O)CCS(N)(=O)=O)c1 [107/13] | < 100
20 | CC(CNS(N)(=O)=O)Oc1nonc1C(=NO)Nc1ccc(F)c(Cl)c1 (single isomer, unassigned) [16/1, N-(3-Chloro-4-fluorophenyl)-N′-hydroxy-4-((1-(sulfamoylamino)propan-2-yl)oxy)-1,2,5-oxadiazole-3-carboximidamide] | > 1000
21 | NS(=O)(=O)CC(=O)NCCSc1nonc1/C(=N/O)Nc1cccc(Cl)c1 [107/5] | < 100
22 | NC(=O)c1ccc(C(=O)NCCSc2nonc2C(=NO)Nc2ccc(F)c(Cl)c2)cc1 [117/9] | < 100
23 | [O-][S+](CC(F)(F)F)c1nonc1C(=NO)Nc1ccc(F)c(Br)c1 (stereo not drawn) [109/3] | > 1000

Further lines, results first:

Row | IC50 [nM] | SMILES
24 | < 100 | NC(=O)CS(=O)(=O)NCCOc1nonc1C(=NO)Nc1ccc(F)c(C(F)(F)F)c1 [4/1]
25 | < 100 | O=C(CC(O)(C(F)(F)F)C(F)(F)F)NCCSc1nonc1C(=NO)Nc1ccc(F)c(C(F)(F)F)c1 [107/21]
26 | < 100 | NS(=O)(=O)NCC(=O)NCCSc1nonc1/C(=N/O)Nc1ccc(F)c(C(F)F)c1 [Example 128, N-(2-((4-(N-(3-(Difluoromethyl)-4-fluorophenyl)-N′-hydroxycarbamimidoyl)-1,2,5-oxadiazol-3-yl)thio)ethyl)-2-(sulfamoylamino)acetamide]
27 | < 100 | NC(CC(=O)NCCSc1nonc1C(=NO)Nc1ccc(F)c(C(F)F)c1)C(F)(F)F (stereo not drawn) [123/7]
28 | < 100 | O=C(NCCSc1nonc1C(=NO)Nc1ccc(F)c(C(F)F)c1)C1(F)CNC1 [123/6]
29 | < 100 | NS(=O)(=O)CC(=O)NCCSc1nonc1/C(=N/O)Nc1ccc(F)c(Br)c1 [107/14]
30 | < 100 | NS(=O)(=O)c1ccc(C(=O)NCCSc2nonc2C(=NO)Nc2ccc(F)c(Cl)c2)cc1 [117/8]
31 | < 100 | NC(=O)CS(=O)(=O)NCCSc1nonc1C(=NO)Nc1ccc(F)c(C(F)F)c1 [119/3]
32 | < 100 | NC(=O)CS(=O)(=O)NCCSc1nonc1C(=NO)Nc1cccc(C(F)F)c1 [119/4]
33 | < 100 | NS(=O)(=O)C1(C(=O)NCCSc2nonc2C(=NO)Nc2ccc(F)c(C(F)F)c2)CC1 [117/21]
34 | < 100 | CC(CSc1nonc1C(=NO)Nc1ccc(F)c(C(F)F)c1)NC(=O)CC(N)=O (single isomer, unassigned) [Example 115/1, N^1-(1-((4-(N-(3-(difluoromethyl)-4-fluorophenyl)-N′-hydroxycarbamimidoyl)-1,2,5-oxadiazol-3-yl)thio)propan-2-yl)malonamide]
35 | < 100 | O=C(NCCSc1nonc1C(=NO)Nc1ccc(F)c(C(F)F)c1)C1(O)CCC1 [107/7]
36 | < 100 | CS(=N)(=O)CC(=O)NCCSc1nonc1/C(=N/O)Nc1ccc(F)c(Br)c1 (stereo not drawn) [Example 127, N-(2-((4-(N-(3-Bromo-4-fluorophenyl)-N′-hydroxycarbamimidoyl)-1,2,5-oxadiazol-3-yl)thio)ethyl)-2-(S-methylsulfonimidoyl)acetamide]
37 | < 100 | NS(=O)(=O)CCC(=O)NCCSc1nonc1C(=NO)Nc1ccc(F)c(C(F)F)c1 [107/36]
38 | < 100 | NS(=O)(=O)NCCSc1nonc1C(=NO)Nc1ccc(F)c(Cl)c1 [101/1, N-(3-Chloro-4-fluorophenyl)-N′-hydroxy-4-((2-(sulfamoylamino)ethyl)thio)-1,2,5-oxadiazole-3-carboximidamide]
39 | < 100 | Cc1cccc(NC(=NO)c2nonc2SCCNC(=O)CS(N)(=O)=O)c1 [107/10]
